pIC50: −log10 of the molar value. Active and inactive are the calls of the source. No cut-off for these calls is given here.

In assay [1] the test system is MCF7. In words: Antiproliferative activity against human MCF7 cells after 48 hrs by MTT assay. It counts as functional, cell-based. The settings on record: MCF7, 48 h. (In general: Tetrazolium dyes change colour on reduction, which living cells bring about.)
For assay [2], the system named is SGC-7901. In words: Antiproliferative activity against human SGC7901 cells after 48 hrs by MTT assay. Type of assay: functional, cell-based. The conditions noted are these: SGC-7901, 48 h.
Assay [3] concerns Bel-7402. In words: Antiproliferative activity against human Bel7402 cells after 48 hrs by MTT assay. The conditions noted are these: for pIC50: Bel-7402, 48 h. Type of assay: functional, cell-based.
Assay [4] has as its system A549. In words: Antiproliferative activity against human A549 cells after 48 hrs by MTT assay. It counts as functional, cell-based. The conditions noted are these: A549, 48 h.
For assay [5], the system named is HepG2. In words: Antiproliferative activity against human HepG2 cells at 5 to 40 uM by MTT assay. It counts as functional, cell-based. The settings on record: TDE = time-dependent effect.
For assay [6], the system named is HepG2. Nature of the assay: Antimigratory activity in human HepG2 cells assessed as cell migration at 20 uM incubated for 48 hrs by wound healing assay (reference value: 58%). It counts as functional.
Assay [7] deals with HepG2. Nature of the assay: Cell cycle arrest in human HepG2 cells assessed as accumulation at G1 phase at 20 uM after 24 hrs by propidium iodide staining-based flow cytometry (reference value: 48%). Type of assay: functional. In general terms: Flow cytometry measures light scatter and fluorescence of single cells or particles in a stream.
The test system of assay [8] is Bel-7402. Nature of the assay: Cell cycle arrest in human Bel7402 cells assessed as accumulation at G1 phase at 20 uM after 24 hrs by propidium iodide staining-based flow cytometry (reference value: 49%). It counts as functional.
Assay [9] concerns Bel-7402. Nature of the assay: Antiproliferative activity against human Bel7402 cells at 5 to 40 uM by MTT assay. Type of assay: functional, cell-based. The settings on record: TDE = time-dependent effect.
Assay [10] relates to HepG2. Nature of the assay: Downregulation of N-cadherin in human HepG2 cells after 48 hrs by Western blot analysis. Type of assay: functional, cell-based. A general note: Immunoblotting shows a protein as a band on a membrane.
Assay [11] relates to Bel-7402. In words: Downregulation of N-cadherin in human Bel7402 cells after 48 hrs by Western blot analysis. It counts as functional, cell-based.
Assay [12] deals with Bel-7402. Nature of the assay: Cell cycle arrest in human Bel7402 cells assessed as accumulation at G1 phase after 24 hrs by propidium iodide staining-based flow cytometry. It counts as functional.
In assay [13] the test system is Bel-7402. Nature of the assay: Upregulation of E-cadherin in human Bel7402 cells after 48 hrs by Western blot analysis. Type of assay: functional, cell-based.
Assay [14] concerns HepG2. In words: Upregulation of P27 in human HepG2 cells at 5 to 20 uM after 24 hrs by Western blot analysis. Type of assay: functional, cell-based.
Assay [15] relates to HepG2. In words: Antimigratory activity in human HepG2 cells assessed as cell migration at 10 uM incubated for 48 hrs by wound healing assay (reference value: 58%). Type of assay: functional.
The subject of assay [16] is Bel-7402. In words: Cell cycle arrest in human Bel7402 cells assessed as accumulation at G1 phase at 10 uM after 24 hrs by propidium iodide staining-based flow cytometry (reference value: 49%). Type of assay: functional.
The test system of assay [17] is HepG2. In words: Antiproliferative activity against human HepG2 cells after 48 hrs by MTT assay. Type of assay: functional, cell-based.
The subject of assay [18] is Bel-7402. Nature of the assay: Upregulation of P27 in human Bel7402 cells at 5 to 20 uM after 24 hrs by Western blot analysis. Type of assay: functional, cell-based.
For assay [19], the system named is HepG2. In words: Cell cycle arrest in human HepG2 cells assessed as accumulation at G1 phase after 24 hrs by propidium iodide staining-based flow cytometry. It counts as functional.
Assay [20] relates to HepG2. In words: Cell cycle arrest in human HepG2 cells assessed as accumulation at G1 phase at 10 uM after 24 hrs by propidium iodide staining-based flow cytometry (reference value: 48%). Type of assay: functional.
In assay [21] the test system is Bel-7402. Nature of the assay: Antimigratory activity in human Bel7402 cells assessed as cell migration at 10 uM incubated for 48 hrs by wound healing assay (reference value: 60%). It counts as functional.
For assay [22], the system named is Bel-7402. In words: Antimigratory activity in human Bel7402 cells assessed as cell migration at 20 uM incubated for 48 hrs by wound healing assay (reference value: 60%). It counts as functional.
For assay [23], the system named is HepG2. Nature of the assay: Upregulation of E-cadherin in human HepG2 cells after 48 hrs by Western blot analysis. It counts as functional, cell-based.
Assay [24] concerns HepG2. Nature of the assay: Upregulation of P21 in human HepG2 cells at 5 to 20 uM after 24 hrs by Western blot analysis. It counts as functional, cell-based.
Assay [25] has as its system Bel-7402. Nature of the assay: Upregulation of P21 in human Bel7402 cells at 5 to 20 uM after 24 hrs by Western blot analysis. It counts as functional, cell-based.

As to `O=c1c2c(oc3ccc(O)cc13)N1C[C@@H]3CCCN4CCC[C@@H]([C@H]34)[C@H]1CC2`, the negative logarithm of the IC50 (pIC50) in [1], in [2], in assay [3] and in assay [4] was less than 4.00 in each case.
For `O=c1c2c(oc3cc(O)ccc13)N1C[C@@H]3CCCN4CCC[C@@H]([C@H]34)[C@H]1CC2`, the pIC50 in [1], in assay [2], in assay [3] and in assay [4] was less than 4.00 throughout.
Consider `O=c1c2c(oc3cc(C(F)(F)F)ccc13)N1C[C@@H]3CCC[N+]4([O-])CCC[C@@H]([C@H]34)[C@H]1CC2` (stereo partly specified), for which the pIC50 in [1] is 4.13; in [2], 4.10; in assay [3], 4.18; in [4], 3.94.
The like results for `Cc1ccc2c(=O)c3c(oc2c1)N1C[C@@H]2CCC[N+]4([O-])CCC[C@@H]([C@H]24)[C@H]1CC3` (stereo partly specified) were, in that order, 4.27, 4.24, 4.31 and 4.13.
The like results for `O=c1c2c(oc3cc(C(F)(F)F)ccc13)N1C[C@@H]3CCCN4CCC[C@@H]([C@H]34)[C@H]1CC2` were, in that order, 4.51, 4.46, 4.50 and 4.39.
On the same counts, the results for `COc1cccc2oc3c(c(=O)c12)CC[C@@H]1[C@H]2CCCN4CCC[C@@H](CN31)[C@@H]24` are 4.13, 4.09, 4.16 and 4.03.
Regarding `O=c1c2c(oc3ccccc13)N1C[C@@H]3CCCN4CCC[C@@H]([C@H]34)[C@H]1CC2`, the pIC50 in assay [1], in [2], in assay [3] and in assay [4] was less than 4.00 in each case.
On to `Cc1ccc2oc3c(c(=O)c2c1)CC[C@@H]1[C@H]2CCCN4CCC[C@@H](CN31)[C@@H]24`, for which the pIC50 is 4.24 in [1], 4.39 in assay [2], 4.43 in assay [3] and 4.01 in assay [4].
For `O=C1CCC[C@@H]2[C@H]3CCCN4CCC[C@@H](CN12)[C@@H]34` [MATRINE], the pIC50 is 2.60 in [1], 2.86 in assay [2], 2.69 in [3] and 2.41 in assay [4]. Moreover, the Activity entry in [3] is “Dose-dependent effect”.
Regarding `Cc1cccc2c(=O)c3c(oc12)N1C[C@@H]2CCCN4CCC[C@@H]([C@H]24)[C@H]1CC3`, the pIC50 in assay [1] is 4.28; in [2], 4.29; in assay [3] it was 4.39; in assay [4], 4.14.
On the same counts, the results for `COc1cccc2c(=O)c3c(oc12)N1C[C@@H]2CCCN4CCC[C@@H]([C@H]24)[C@H]1CC3` are 4.12, 4.09, 4.14 and 4.02.
The like results for `COc1ccc2c(=O)c3c(oc2c1)N1C[C@@H]2CCCN4CCC[C@@H]([C@H]24)[C@H]1CC3` were, in that order, 4.11, 4.17, 4.32 and 4.01.
Consider `O=c1c2c(oc3cccc(O)c13)N1C[C@@H]3CCCN4CCC[C@@H]([C@H]34)[C@H]1CC2`, for which the pIC50 in assay [1], in [2], in assay [3] and in assay [4] was less than 4.00 in each case.
Turning to `O=c1c2c(oc3ccc(Cl)cc13)N1C[C@@H]3CCCN4CCC[C@@H]([C@H]34)[C@H]1CC2`, the pIC50 in assay [1] is 4.32; in assay [2], 4.34; in [3] it was 4.44; in assay [4], 4.24.
On the same counts, the results for `Cc1ccc2c(=O)c3c(oc2c1)N1C[C@@H]2CCCN4CCC[C@@H]([C@H]24)[C@H]1CC3` are 4.31, 4.33, 4.52 and 4.28.
On to `O=c1c2c(oc3cc(Cl)ccc13)N1C[C@@H]3CCCN4CCC[C@@H]([C@H]34)[C@H]1CC2`, for which the Activity entry was “Tde” in assay [5]; 83% in assay [6]; 65% in assay [7]; 79% in assay [8]; “Tde” in assay [9]; “Dose-dependent effect” in [10]. Besides, the Activity result in assay [11] was “Dose-dependent effect”; in assay [12], “Dose-dependent effect”; in assay [13], “Dose-dependent effect”; in assay [15] it was 80%; in assay [16], 67%; in assay [17] it was “Dose-dependent effect”. Besides, the Activity result in assay [19] was “Dose-dependent effect”; in assay [20], 54%; in [21], 75%; in assay [22], 85%; in [23], “Dose-dependent effect”. In addition, the pIC50 in [1] was 4.55; in assay [2] it was 4.54; in assay [3], 4.60; in assay [4], 4.44. Moreover, the outcome in assay [14], in assay [18], in assay [24] and in assay [25] was Active.

For orientation: pIC50 means the IC50 on a negative log10 scale, so that one unit is a factor of ten. A low value points to a large IC50.

These data come from ChEMBL document CHEMBL4477244, “Synthesis and biological evaluation of matrine derivatives as anti-hepatocellular cancer agents” (Bioorg Med Chem Lett, 2016).
